Experimental data taken from patent US20050070462A1, “Method for stabilising of nucleic acids” (Intercell AG, priority 2001, published 2005).
Ends that are not written are not given here.

Experiments:
[1] = system: OVA257-264-specific immune responses; test: IFN-γ ELISPOT of popliteal lymph node cells 4 days after footpad injection with OVA257-264 (Example 1); assay type: in vivo, Mice C57Bl/6; settings: injected with OVA257-264 and co-injection of poly-L-arginine 100 μg/mouse; ODN 5 nmol/mouse; day 4
Protocol: • Mice C57Bl/6 (Harlan/Olac) • Peptide OVA257-264-Peptide (SIINFEKL), a MHC class I (H-2 Kb)-restricted epitope of chicken ovalbumin (Rotzschke et al., 1991), synthesized by standard solid phase F-moc synthesis, HPLC purified and analysed by mass spectroscopy for purity • Dose: 300 μg/mouse • Poly-L-arginine (pR) Poly-L-arginine with an average degree of polymerization of 43 arginine residues; SIGMA chemicals • Dose: 100 μg/mouse • CpG-ODN 1668 thiophosphate substituted ODNs containing CpG-motif: tcc atg acg ttc ctg atg ct, were synthesized by Purimex GmbH, Göttingen. • Dose: 5 nmol/mouse • CpG-ODN 1668 b ODNs containing CpG-motif (not substituted with thiophospate): tcc atg acg ttc ctg atg ct, were synthesized by Purimex GmbH, Göttingen. • Dose: 5 nmol/mouse. Experimental Groups (4 Mice Per Group) • 1. OVA257-264+pR • 2. OVA257-264+CpG-ODN 1668 • 3. OVA257-264+CpG-ODN 1668 b • 4. OVA257-264+CPG-ODN 1668+pR • 5. OVA257-264+CPG-ODN 1668 b+pR. […] This method is a widely used procedure allowing the quantification of antigen-specific T cells. […] Spots representing single IFN-γ producing T cells were counted and the number of background spots was substracted from all samples. The high number of spots detected after the stimulation with Con A (data not shown) indicates a good condition of the used lymphocytes. […]

[2] = system: TRP-2181-188-specific immune responses; test: IFN-γ ELISPOT of spleen cells at day 6, 49 and 98 after injection with TRP-2181-188 (Example 5); assay type: in vivo, Mice C57Bl/6; settings: co-injection of TRP-2181-188, pR and ODN, day 6, day 49, day 98 after single injection, compared to TRP-2181-188 with pR or CpG 1668b
[3] = system: OVA257-264-specific IFN-γ producing T cells; test: IFN-γ ELISPOT of PBMCs at day 7 after injection with OVA257-264 and KLK (Example 6); assay type: in vivo, Mice C57Bl/6; settings: injected with OVA257-264, single adjuvant
[4] = system: peptide-specific IFN-γ-producing T cells (TRP-2181-188); test: IFN-γ ELISPOT of PBMCs at day 7 after injection with TRP-2181-188 and KLK (Example 7); assay type: in vivo, Mice C57Bl/6; settings: TRP-2181-188 alone or with a single adjuvant
[5] = system: TRP-2181-188-specific immune responses; test: IFN-γ ELISPOT of spleen cells at day 40 after injection with TRP-2181-188 (Example 4); assay type: in vivo, Mice C57Bl/6; settings: injected with TRP-2181-188, single adjuvant, compared to TRP-2181-188 alone
serum DNAses = test: Degradation of DNA-plasmid pSP65 by serum DNAses, agarose gel (Example 8); assay type: in vitro ADME; settings: incubated with serum from naïve mice, 1 h at 37° C., presence of poly-L-arginine 2.4 μg
Protocol: To investigate the protective effect of pR in preventing the degradation of DNA by DNAses the following in vitro experiment was performed. To show a possible in vivo relevance serum was used as source of DNases.
The DNA-plasmid pSP65 (1.58 μg/2 μl) was incubated with serum (8 μl) from naïve mice in the presence or absence of poly-L-arginine (2.4 μg/2.4 μl) for 1 h at 37° C. Addition of heparin (1.6 U/1.6 μl) for 20 min at RT was used for the dissociation of DNA/pR-complexes allowing DNA to migrate into the gel. […] As control a 100 bp DNA marker (GIBCO BRL) was used.

[6] = system: TRP-2181-188-specific immune responses; test: IFN-γ ELISPOT of lymph node cells after footpad injection with TRP-2181-188 (Examples 2 and 3); assay type: in vivo, Mice C57Bl/6; settings: injected with TRP-2181-188 and co-injection of poly-L-arginine 100 μg/mouse; ODN 5 nmol/mouse

Substance: CpG-ODN 1668 b: ODNs containing CpG-motif (not substituted with thiophospate): tcc atg acg ttc ctg atg ct (DNA TCCATGACGTTCCTGATGCT; unmodified DNA)
- OVA257-264-specific immune response (IFN-γ-producing cells/1×10^6 lymph node cells) [1]: only upon co-injection of poly-L-arginine a high immune response was induced
- peptide-specific IFN-g producing cells (spleen) ([2]; listed as CpG 1668 b): potent and long lasting immune stimulatory effect
- peptide-specific IFN-g producing cells (spleen) ([2]; listed as CpG 1668b): significantly higher numbers of peptide-specific IFN-g producing cells

Substance: KLKLLLLLKLK—COOH (KLKLLLLLKLK-OH) [synthetic peptide containing KLK-motifs separated by a linker of hydrophobic amino acids]
- peptide-specific IFN-γ-production (PBMCs) [3]: no peptide-specific IFN-γ-production
- peptide-specific IFN-γ-production (PBMCs) [4]: no peptide-specific IFN-γ-production

Substance: Poly-L-arginine [pR]
- TRP-2181-188-specific immune response (IFN-γ-producing spleen cells) [5]: enhances TRP-2181-188-specific immune responses
- degradation of pSP65 DNA by serum DNases (agarose gel band pattern) (serum DNAses): prevented

Substance: TRP-2181-188: VYDFFVWL, a MHC class I (H-2 Kb)-restricted epitope of mouse tyrosinase related protein-2 [reference compound]
- peptide-specific IFN-γ-production (PBMCs) [4]: no peptide-specific IFN-γ-production

Substance: U-ODN 13b: ODNs containing deoxy-Uridine monophosphate (not substituted with thiophospate): tcc atg acu ttc ctg atg ct (DNA TCCATGACUTTCCTGATGCT; DNA, all phosphodiester, T or U not given here; further chemistry not fully specified)
- TRP-2181-188-specific immune response (IFN-γ-producing lymph node cells) [6]: only upon co-injection of poly-L-arginine a strong immune response was induced
